According to PMC3134859, “Chemical Stability of New Acyclovir Analogues with Peptidomimetics” (Scientia Pharmaceutica, 2011):
Where “and” joins values, the source holds several entries; their conditions need not be identical. Identical values can stand only once. Like-named read-outs stand apart in the source and are kept apart here.

Legend:
[1] = Chemical stability (hydrolysis) of acyclovir esters in aqueous buffer, unchanged ester quantified by HPLC; type: physicochemical; settings: for pH=1, t½, h: pH 1.0 (0.1 M HCl); for pH=1, t½, h / pH=7.4, t½, h: 37°C, decomposition half-life; for chemical stability at pH 1 (in words): pH 1.0, 37°C, acidic conditions; for pH=7.4, t½, h: pH 7.4 (phosphate buffer); for chemical stability at pH 7.4 (in words): pH 7.4, 37°C
Procedure: It was established that, under the described experimental conditions, some esters underwent decomposition by hydrolysis. The hydrolysis followed apparent first order kinetics, and the rate constants (K) were obtained as slopes from the semi-logarithmic plots of the unchanged ester concentration versus time. The chemical stability was assessed by means of the decomposition half-lives: t1/2=ln2/K
Chromatography was carried out isocratically, on a modular KNAUER HPLC system (Germany), consisting of a Smartline Pump 1000, a Smartline Manager 5000 solvent degasser, an injector with a 20 μl loop and a Smartline UV Detector 2600 diode array. The analyses were controlled and the data were acquired with EuroChrom software. The mobile phase consisted of acetonitrile/water in a ratio of 30:70 or 50:50 v/v depending on the polarity of the compound and a flow rate 1 ml/min was used. The detection was performed at relevant λmax for the respective compound (range 252–262 nm).
A single chromatographic method was used to detect the studied acyclovir esters with thiazole rings containing amino acids (Gly, Ala, Val, Leu) in aqueous buffer solutions at pH 1.0 (0.1 M HCl) and pH 7.4 (phosphate buffer). Twenty microlitres of each sample were injected into a reverse phase HPLC C18 column. The mobile phase consisted of acetonitrile/water at a ratio of 30:70 or 50:50 v/v depending on the polarity of the compound. The analyses of the esters of acyclovir with amino acid (Gly, Ala, Val, Leu) containing thiazole rings were validated. The specificity of the method was investigated by observing potential interference between the esters of acyclovir and its parent drug, acyclovir. No interfering peaks were presented in the chromatograms. The linearity of the relationship between the peak area and concentration was determined by analysing six standard solutions in a concentration range of 0.1–1.0 mmol/l. For all analytes, the relationship between the peak area ratio of the drug to the internal standard and concentration was linear over the entire examined concentration range. The correlation coefficients of the calibration curves were greater than 0.997.
Hydrolysis of acyclovir esters with thiazole rings containing amino acids (Gly, Ala, Val, Leu) was studied at pH 1.0 (HCl) and pH 7.4 (phosphate buffered saline). Stock solutions of the prodrugs were prepared and used immediately for stability studies. Aliquots (9.8 ml) of the buffer were placed in a screw-capped vial and allowed equilibrate at 37°C. A prodrug stock solution (0.2 ml) was added to the buffer. The vial was placed in a constant shaker bath set at 37°C and 60 rpm. Each sample was directly analysed by HPLC.

[2] = system: HSV-2; parameters: method as in PMID 19400144; settings: cited from earlier work
[3] = cited from earlier work
[4] = cited from earlier work; remark: listed apart in the source
[5] = system: HSV-1; parameters: method as in PMID 19400144; settings: cited from earlier work
[6] = cited from earlier work; remark: listed apart in the source

Compound | pH=1, t½, h [1] [h] | chemical stability at pH 1 (in words) [1] | pH=7.4, t½, h [1] | chemical stability at pH 7.4 (in words) [1] | effect against HSV-2 [2] | further results
Nc1nc2c(ncn2COCCO)c(=O)[nH]1 [ACV, 9-[(2-hydroxyethoxy)methyl]guanine] | – | – | – | – | – | bioavailability by oral administration [3]: 14%; aqueous solubility [4]: low aqueous solubility
CC(C)[C@H](N)C(=O)OCCOCn1cnc2c(=O)[nH]c(N)nc21 [valacyclovir] | – | – | – | – | – | bioavailability relative to acyclovir ([3]; oral administration): four-fold higher; t½ at pH 7.4 ([6]; pH 7.4, 37°C): 13 h; t½ at pH 7.4 ([6]; pH 7.4): 13 h
CC(C)CC(NC(=O)OC(C)(C)C)c1nc(C(=O)OCCOCn2cnc3c(=O)[nH]c(N)nc32)cs1 (stereo not drawn) [compound 4, Boc-2-Leu-thiazole-acyclovir] | 2.6±0.2 | rather unstable | 5.0±0.4 h | lower stability | – | –

Further lines, with some results ahead:

pH=1, t½, h [1] [h] | chemical stability at pH 1 (in words) [1] | pH=7.4, t½, h [1] | chemical stability at pH 7.4 (in words) [1] | Compound | effect against HSV-2 [2] | further results
1.1±0.1 | less stable | 5.9±0.5 h | lower stability | CC(C)(C)OC(=O)NCc1nc(C(=O)OCCOCn2cnc3c(=O)[nH]c(N)nc32)cs1 [compound 1, Boc-2-aminomethyl-thiazole-acyclovir] | – | chemical stability at pH 1 (in words) ([1]; listed as Gly-thiazole): rather unstable
1.3±0.1 | rather unstable | 7.8±0.5 h | satisfying chemical stability | CC(NC(=O)OC(C)(C)C)c1nc(C(=O)OCCOCn2cnc3c(=O)[nH]c(N)nc32)cs1 (stereo not drawn) [compound 2, Boc-2-Ala-thiazole-acyclovir] | appreciable effect | effect against HSV-2 ([2]; listed as Ala-thiazolyl ester of acyclovir): prominent activity
0.7±0.1 | less stable | 17 h and 17.8±0.9 h | highest chemical stability | CC(C)C(NC(=O)OC(C)(C)C)c1nc(C(=O)OCCOCn2cnc3c(=O)[nH]c(N)nc32)cs1 (stereo not drawn) [compound 3, Boc-2-Val-thiazole-acyclovir] | did not exhibit a satisfying effect | effect against HSV-1 [5]: did not exhibit a satisfying effect; chemical stability at pH 7.4 (in words) ([1]; listed as Valthiazole-acyclovir): remarkable
